Key:
[1] = test system: HCT-116 (human colorectal carcinoma) cell line; experiment: MTT cytotoxicity assay, HCT-116; type: cell-based; conditions: 48 h incubation, mean ± SD
Method: (§1) HCT-116 (human colorectal carcinoma) and MCF-7 (human breast adenocarcinoma) cell lines were purchased from the American Type Culture Collection (Rockville, MD) and maintained in Dulbecco’s Modified Eagle’s Medium (DMEM) supplemented with 10% heat-inactivated foetal bovine serum (FBS), 100 U ml^−1 penicillin, and 100 U ml^−1 streptomycin. The cells were grown at 37 °C in a humidified atmosphere of 5% CO2.
(§2) Cytotoxicity activity against HCT-116 and MCF-7 was estimated by the 3-[4,5-dimethyl-2-thiazolyl)-2,5-diphenyl-2H-tetrazolium bromide (MTT) assay. This test is based on MTT cleavage by mitochondrial dehydrogenases from viable cells[43]^,[44]. Cells were placed in a 96-well sterile microplate (5 × 10^4 cells well^−1) and incubated at 37 °C in serum-free media containing dimethyl sulphoxide (DMSO) and either a series of various concentrations of each compound or doxorubicin (positive control) for 48 h before the MTT assay. After incubation, the media were removed and 40 µl MTT (2.5 mg ml^−1) was added to each well. Incubation was resumed for an additional 4 h. The purple formazan dye crystals were solubilised with 200 µl DMSO. Absorbance was measured at 590 nm in a Spectra Max Paradigm Multi-Mode microplate reader (Molecular Devices, LLC, San Jose, CA). Relative cell viability was expressed as the mean percentage of viable cells compared to the untreated control cells.
(§3) All experiments were conducted in triplicate and repeated on three different days. All values were reported as mean ± SD. The IC50 values were determined by SPSS Inc. probit analysis (IBM Corp., Armonk, NY).

[2] = molecular target: mutant EGFR kinase type L858R (Homo sapiens, UniProt P00533, L858R); experiment: In vitro kinase inhibition assay (Kinase-Glo Max luminescence); conditions: IC50 (mean ± SEM) (µM) EGFR, mean of three values ± SEM
mutant EGFR kinase type L858R, sequence (P00533 25-1210 L858R): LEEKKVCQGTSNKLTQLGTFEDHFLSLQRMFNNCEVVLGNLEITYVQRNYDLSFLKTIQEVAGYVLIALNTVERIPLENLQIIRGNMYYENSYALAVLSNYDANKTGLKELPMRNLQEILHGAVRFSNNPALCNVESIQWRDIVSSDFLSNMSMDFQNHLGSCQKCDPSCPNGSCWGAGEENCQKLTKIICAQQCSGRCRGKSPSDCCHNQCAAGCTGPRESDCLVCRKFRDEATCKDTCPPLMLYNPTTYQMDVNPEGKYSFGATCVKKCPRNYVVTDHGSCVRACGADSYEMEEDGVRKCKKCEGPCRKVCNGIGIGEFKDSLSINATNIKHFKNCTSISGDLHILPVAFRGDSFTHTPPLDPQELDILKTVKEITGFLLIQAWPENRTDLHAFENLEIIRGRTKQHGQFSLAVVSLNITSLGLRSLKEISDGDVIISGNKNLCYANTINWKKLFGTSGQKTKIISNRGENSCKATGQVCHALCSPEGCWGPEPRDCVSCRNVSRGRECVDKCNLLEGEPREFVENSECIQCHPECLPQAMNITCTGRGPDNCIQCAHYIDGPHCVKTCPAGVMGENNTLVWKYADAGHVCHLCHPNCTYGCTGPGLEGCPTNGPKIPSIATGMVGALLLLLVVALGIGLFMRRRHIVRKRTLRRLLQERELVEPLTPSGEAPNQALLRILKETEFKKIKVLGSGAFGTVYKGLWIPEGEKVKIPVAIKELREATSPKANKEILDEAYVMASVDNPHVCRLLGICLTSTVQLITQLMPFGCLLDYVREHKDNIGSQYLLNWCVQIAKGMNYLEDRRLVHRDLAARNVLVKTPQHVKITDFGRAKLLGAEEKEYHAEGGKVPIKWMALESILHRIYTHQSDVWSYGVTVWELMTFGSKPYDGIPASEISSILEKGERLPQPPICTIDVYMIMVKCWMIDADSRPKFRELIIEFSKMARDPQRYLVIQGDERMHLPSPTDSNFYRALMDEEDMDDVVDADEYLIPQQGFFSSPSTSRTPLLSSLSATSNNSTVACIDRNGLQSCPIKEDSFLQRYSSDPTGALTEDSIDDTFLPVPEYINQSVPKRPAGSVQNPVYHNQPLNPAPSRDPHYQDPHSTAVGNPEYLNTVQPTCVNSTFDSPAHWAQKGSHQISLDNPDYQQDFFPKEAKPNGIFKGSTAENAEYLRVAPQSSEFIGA
Method: The master mixture (6 μl 5× kinase buffer + 1 μl ATP (500 μM)+1 μl 50× PTK substrate + 17 μl water) was prepared then, 25 μl to every well was added. Five microlitres of inhibitor solution of each well labelled as “Test Inhibitor” was added. However, for the “Positive Control” and “Blank”, 5 μl of the same solution without inhibitor (inhibitor buffer) was added. Three millilitres of 1× kinase buffer by mixing 600 μl of 5× kinase buffer with 2400 μl water was prepared. […] To the wells designated as “Blank”, 20 μl of 1× kinase buffer was added. EGFR enzyme on ice was thawed. Upon first thaw, briefly the tube containing enzyme was spun to recover full content of the tube. The amount of EGFR required for the assay and dilute enzyme to 1 ng/μl with 1× kinase buffer was calculated. Moreover, the remaining undiluted enzyme in aliquots was stored at –80 °C. The reaction was initiated by adding 20 μl of diluted EGFR enzyme to the wells designated “Positive Control” and “Test Inhibitor Control”, after that it was incubated at 30 °C for 40 min. After the 40 minutes’ reaction, 50 μl of Kinase-Glo Max reagent was added to each well and the plate was covered with aluminium foil and incubated at room temperature for 15 min. Luminescence was measured using the microplate reader.

[3] = test system: MCF-7 (human breast adenocarcinoma) cell line; experiment: MTT cytotoxicity assay, MCF-7; type: cell-based; conditions: 48 h incubation, mean ± SD
Method: as §1, §2, §3

Structure (SMILES)	IC50 ([1]; Homo sapiens, HCT-116, 48 h) [µM]	IC50 [2] [µM]	IC50 ([3]; Homo sapiens, MCF7, 48 h) [µM]	melting point [°C]	IC50 [1] [µM]	IC50 [3] [µM]
C#CCSc1nc2sc3c(c2c(=O)n1N)CCC3 [Compound 2, 3-Amino-2-(prop-2-yn-1-ylthio)-3,5,6,7-tetrahydro-4H-cyclopenta[4,5]thieno[2,3-d]pyrimidin-4-one]	8.6 ± 1.9	0.5 ± 1	2.1 ± 0.3	181 to 182	–	–
CC(=O)OCC1OC(OCc2cn(CCSc3nc4sc5c(c4c(=O)n3N)CCC5)nn2)C(OC(C)=O)C(OC(C)=O)C1OC(C)=O [Compound 13, 3-Amino-2-(ethylylthio)-{2-[4-({[2,3,4,6-tetra-O-acetyl-β-D-glucopyranosyl]oxy}methyl)-1H-1,2,3-triazol-1-yl]ethoxy}-3,5,6,7-tetrahydro-4H-cyclopenta[4,5]thieno[2,3-d] pyrimidin-4-one]	8.7 ± 1.6	–	4.2 ± 0.5	159 to 160	–	–
CC(=O)OCC1OC(OCc2cn(CCCCSc3nc4sc5c(c4c(=O)n3N)CCC5)nn2)C(OC(C)=O)C(OC(C)=O)C1OC(C)=O (stereo not drawn) [Compound 17]	–	0.02	–	159 to 160	8.4 ± 1.1	5.2 ± 0.9
COc1cccc2c1C(=O)c1c(O)c3c(c(O)c1C2=O)C[C@@](O)(C(=O)CO)C[C@@H]3O[C@H]1C[C@H](N)[C@H](O)[C@H](C)O1 [Doxorubicin, reference compound]	7.8 ± 0.7	–	6.7 ± 0.9	–	–	–
CC(=O)OC1COC(OCc2cn(CCSc3nc4sc5c(c4c(=O)n3N)CCC5)nn2)C(OC(C)=O)C1OC(C)=O (stereo not drawn) [Compound 15]	8.9 ± 1.1	0.017	5 ± 0.9	153 to 154	–	–
CC(=O)OCC1OC(OCc2cn(CCCCSc3nc4sc5c(c4c(=O)n3N)CCC5)nn2)C(OC(C)=O)C(OC(C)=O)C1OC(C)=O (stereo not drawn) [Compound 16]	8.1 ± 0.8	–	5.3 ± 0.8	163 to 164	–	–
CC(=O)OC[C@H]1O[C@@H](n2cc(CSc3nc4sc5c(c4c(=O)n3N)CCC5)nn2)[C@H](OC(C)=O)[C@@H](OC(C)=O)[C@@H]1OC(C)=O [Compound 4, 3-Amino-2-(((1-(2,3,4,6-tetra-O-acetyl-β-D-glucopyranosyl)-1H-1,2,3-triazol-4-yl)methyl)thio)-3,5,6,7-tetrahydro-4H-cyclopenta [4,5]thieno[2,3-d]pyrimidin-4-one]	–	–	–	151 to 152	–	–
CC(=O)OC1COC(n2cc(CSc3nc4sc5c(c4c(=O)n3N)CCC5)nn2)C(OC(C)=O)C1OC(C)=O [Compound 5, 3-Amino-2-(((1-(2,3,4-tri-O-acetyl-β-D-xyloopyranosyl)-1H-1,2,3-triazol-4-yl)methyl)thio)-3,5,6,7-tetrahydro-4H-cyclopenta[4,5]thieno[2,3-d]pyrimidin-4-one]	8.6 ± 0.9	0.13	2.9 ± 0.4	155 to 156	–	–
CC(=O)OCC1OC(OCc2cn(CCSc3nc4sc5c(c4c(=O)n3N)CCC5)nn2)C(OC(C)=O)C(OC(C)=O)C1OC(C)=O (stereo not drawn) [Compound 14]	–	0.013	–	156 to 157	8.8 ± 1.1	4.5 ± 0.7
Nn1c(SCc2cn([C@@H]3OC[C@@H](O)[C@H](O)[C@H]3O)nn2)nc2sc3c(c2c1=O)CCC3 [Compound 7, 3-Amino-2-(((1-(β-D-xylopyranosyl)-1H-1,2,3-triazol-4-yl)methyl)thio)-3,5,6,7-tetrahydro-4H-cyclopenta[4,5]thieno[2,3-d]pyrimidin-4-one]	8.7 ± 1.5	0.17 ± 0.43	4.3 ± 0.8	189 to 190	–	–
